Entries after “also recorded” stand apart in the source; their conditions may differ.
Tests used:
Nurr1 [1] = target: T1, Nurr1 (Homo sapiens, UniProt P43354); experiment: Gal4-Nurr1 hybrid reporter gene assay in HEK293T cells; assay type: cell-based; set-up: expressed in transfected cells; host or cells: HEK293T; conditions: for EC50(Nurr1) (max. activation): result in words; for max. activation: maximum effect vs. 0.1% DMSO control; for max. activation / EC50: mean±SD, n≥3; for EC50: Gal4-Nurr1 hybrid reporter gene assay
Protocol: Hybrid reporter gene assays. Nurr1 modulation was determined in a Gal4 hybrid reporter gene assay in HEK293T cells (German Collection of Microorganisms and Cell Culture GmbH, DSMZ) using pFR-Luc (Stratagene, La Jolla, CA, USA; reporter), pRL-SV40 (Promega, Madison, WI, USA; internal control) and pFA-CMV-hNurr1-LBD^14, coding for the hinge region and ligand binding domain of the canonical isoform of human Nurr1. […] After 24 h, medium was changed to Opti-MEM without supplements and cells were transiently transfected using Lipofectamine LTX reagent (Invitrogen, Carlsbad, CA, USA) according to the manufacturer's protocol. Five hours after transfection, cells were incubated with the test compounds in Opti-MEM supplemented with penicillin (100 U/mL), streptomycin (100 µg/mL) and 0.1% DMSO for 16 h before luciferase activity was measured using the Dual-Glo Luciferase Assay System (Promega) according to the manufacturer's protocol on a Tecan Spark luminometer (Tecan Deutschland GmbH, Crailsheim, Germany). Firefly luminescence was divided by Renilla luminescence and multiplied by 1000 resulting in relative light units (RLU) to normalize for transfection efficiency and cell growth. Fold activation was obtained by dividing the mean RLU of test compound by the mean RLU of the untreated control. All samples were tested in at least three biologically independent experiments in duplicates. For dose-response curve fitting and calculation of EC50 values, the equation "[Agonist] vs. response -- Variable slope (four parameters)" was used in GraphPad Prism (version 7.00, GraphPad Software, La Jolla, CA, USA). Selectivity profiling was performed with identical procedures using pFA-CMV-Nur77-LBD^14, pFA-CMV-NOR-1-LBD^14, pFA-CMV-THRα-LBD^39, pFA-CMV-RARα-LBD^40, pFA-CMV-PPARα-LBD^41, pFA-CMV-PPARγ-LBD^41, pFA-CMV-PPARδ-LBD^41, pFA-CMV-LXRα-LBD^37, pFA-CMV-FXR-LBD^42 and pFA-CMV-hRXRα-LBD^43.
Target sequence in this assay (P43354 360-595 limits assumed): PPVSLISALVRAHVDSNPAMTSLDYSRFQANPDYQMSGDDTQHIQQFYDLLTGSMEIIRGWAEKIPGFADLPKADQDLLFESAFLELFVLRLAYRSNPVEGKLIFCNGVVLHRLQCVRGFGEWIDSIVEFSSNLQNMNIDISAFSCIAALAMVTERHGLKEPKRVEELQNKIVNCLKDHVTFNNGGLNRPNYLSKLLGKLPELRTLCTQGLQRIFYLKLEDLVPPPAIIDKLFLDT

Nurr1 [2] = target: T1, Nurr1; experiment: Ligand efficiency metrics; conditions: computed according to ref. 29
Target sequence in this assay (P43354 whole entry, the tested form may be a part, canonical isoform): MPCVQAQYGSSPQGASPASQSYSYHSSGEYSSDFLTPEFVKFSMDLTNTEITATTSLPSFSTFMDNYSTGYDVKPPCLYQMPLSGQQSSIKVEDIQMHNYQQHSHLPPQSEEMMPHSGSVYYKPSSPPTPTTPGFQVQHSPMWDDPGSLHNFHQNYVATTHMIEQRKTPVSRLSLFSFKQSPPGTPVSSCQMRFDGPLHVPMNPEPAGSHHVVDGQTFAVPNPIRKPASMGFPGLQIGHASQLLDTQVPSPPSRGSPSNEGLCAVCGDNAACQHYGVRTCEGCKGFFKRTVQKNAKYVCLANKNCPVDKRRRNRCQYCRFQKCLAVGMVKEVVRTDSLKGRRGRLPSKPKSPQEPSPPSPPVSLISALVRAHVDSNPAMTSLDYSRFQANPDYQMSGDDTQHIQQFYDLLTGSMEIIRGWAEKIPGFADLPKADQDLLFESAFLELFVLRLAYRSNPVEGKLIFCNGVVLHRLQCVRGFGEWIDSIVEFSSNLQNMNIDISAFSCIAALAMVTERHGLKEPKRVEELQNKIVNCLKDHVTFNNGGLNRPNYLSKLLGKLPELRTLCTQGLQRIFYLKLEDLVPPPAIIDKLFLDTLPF

| SMILES | EC50(Nurr1) (max. activation) (Nurr1 [1]; at 100 µM) | max. activation (Nurr1 [1]) | EC50 (Nurr1 [1]) | further results |
| --- | --- | --- | --- | --- |
| Cc1nc2cc(Cl)ccn2c1N [Compound 9] | inactive (100 µM) |  |  |  |
| Cc1nc2cccc(Cl)c2[nH]1 [Compound 7, 4-Chloro-2-methyl-benzimidazole] | failed to activate Nurr1; also recorded: inactive (100 µM) |  |  |  |
| Cc1nc2ccccn2c1N [Compound 13] | inactive (100 µM) |  |  |  |
| Nc1cnc2ccccn12 [Compound 10] | inactive (100 µM) |  |  |  |
| Nc1c(-c2ccc(C(F)(F)F)cc2)nc2c(Cl)cccn12 [Compound 22] |  | < 1.2-fold act. |  |  |
| Cc1ccc(-c2ccc(C(=O)Nc3c(C)nc4c(Cl)cccn34)o2)cc1 [Compound 32] |  | 2.0±0.2 fold | 0.13 ± 0.02 µM |  |
| Nc1c(-c2ccccc2Cl)nc2c(Cl)cccn12 [Compound 19] | inactive (100 µM) |  |  |  |
| Cc1nc2c(Cl)cccn2c1NC(=O)c1ccc(-c2ccccc2)o1 [Compound 27] |  | 2.1±0.1 fold | 4 ± 1 µM |  |
| Cc1cccc(-c2nc3c(Cl)cccn3c2N)c1 [Compound 21] |  | < 1.2-fold act. |  |  |
| Cc1nc2c(Cl)cccn2c1NC(=O)c1ccc(-c2ccc(C(F)(F)F)cc2)o1 [Compound 31] |  |  | 1.1 ± 0.3 µM |  |
| Cc1nc2c(Cl)cccn2c1NC(=O)c1ccc(-c2ccccc2)cc1 [Compound 30] |  |  |  | EC50(Nurr1) (max. activation) (Nurr1 [1]; at 10 µM): inactive (10 µM) |
| CC(C)c1nc2c(Cl)cccn2c1N [Compound 14] | inactive | < 1.2 fold |  |  |
| Cc1ccc(-c2nc3c(Cl)cccn3c2N)cc1 [Compound 20] |  | 2.0±0.2 fold | 12 ± 2 µM |  |
| Cc1cc(N)c2cccc(Cl)c2n1 [Compound 4, 8-chloro-2-methylquinolin-4-amine] |  | 1.7±0.1 fold | 17 ± 6 µM | ligand efficiency (LE) (Nurr1 [2]): 0.50; lipophilic ligand efficiency (LLE) (Nurr1 [2]): 1.99; size-independent ligand eff. (SILE) (Nurr1 [2]): 2.21 |
| Nc1c(-c2ccccc2)nc2c(Cl)cccn12 [Compound 15] |  | 1.4±0.1 fold |  |  |
